Compound CC[C@H](NC(=O)c1cc(F)ccc1NS(=O)(=O)c1cccc2cccnc12)c1ccccc1 [Example 52, (S)-5-Fluoro-2-(quinoline-8-sulfonylamino)-N-(1-phenylpropyl)-benzamide] has a melting point of 163 °C.
